Measured values as given in patent publication US9981988B2, “Polymorphic forms and co-crystals of a c-Met inhibitor” (AMGEN, INC., priority 2014, dated 2018).

Tests used:
Format in all cases: physicochemical
[1] = Equilibrium solubility in water and aqueous media; settings: 22.5 °C, thermodynamic from solid
Procedure: In all studies, excess solid of the compound was allowed to equilibrate at a temperature in the range of about 20 to 25° C. for 12-48 hours while stirring.

[2] = Solubility in organic solvents; settings: 20 °C, thermodynamic from solid, 20 to 25° C., at least 12 hours
Procedure: In all studies, excess solid of the compound was allowed to equilibrate for at least 12 hours while stirring.

[3] = Photostability of solid powder (1×ICH dose UV and visible light), HPLC; settings: for degradation: 1×ICH dose, clear glass vials
Procedure: (§1) High performance liquid chromatography (HPLC) analyses were performed on an Agilent 1100 or 1200 series HPLC equipped with a binary pump, diode-array detector, thermostated column compartment, and auto sampler. Separation and elution was achieved using a reverse-phase column and 0.1% triflouroacetic acid/water/acetonitrile mobile phase.
As shown in the table below minimal degradation, 0.4% and 0.2%, was detected in samples in clear glass vials under UV and visible light, respectively.

[4] = Solid state stability under accelerated stability testing conditions, HPLC
Procedure: as §1
Solid samples of the free base monohydrate form of Compound M were placed under accelerated stability testing conditions (25° C./60% RH, 40° C./75% RH and 60° C./ambient RH) for 12 weeks.

[5] = Visible (1200 klux × h), Amber vial
[6] = Visible (1200 klux × h), Clear vial

SMILES: COCCOc1cnc2ccn([C@H](C)c3nnc4c(F)cc(-c5cnn(C)c5)cn34)c(=O)c2c1 [free base monohydrate form of Compound M, 6-{(1R)-1-[8-fluoro-6-(1-methyl-1H-pyrazol-4-yl)[1,2,4]triazolo[4,3-a]pyridin-3-yl]ethyl}-3-(2-methoxyethoxy)-1,6-naphthyridin-5(6H)-one]
- solubility ([1]; 0.01N HCl, pH 1.9, simulated gastric fluid, 0.01N HCl, pH 1.9, 20 to 25° C., 12-48 hours, read-out: Solubility): 350 µg/mL
- solubility ([1]; FaSIF, pH 6.8, fassif, FaSIF, pH 6.8, 20 to 25° C., 12-48 hours, read-out: Solubility): 440 µg/mL
- solubility ([1]; PBS, pH 6.9, aqueous buffer, PBS, pH 6.9, 20 to 25° C., 12-48 hours, read-out: Solubility): 180 µg/mL
- solubility ([1]; SGF, pH 2.1, aqueous with cosolvent or surfactant or cyclodextrin, SGF (0.25% (w/v) SDS 0.2% (w/v) NaCl in 0.01N HCl), pH 2.1, 20 to 25° C., 12-48 hours, read-out: Solubility): 1440 µg/mL
- solubility ([1]; aqueous medium, pH adjusted with HCl, pH 0.73, aqueous buffer, pH 0.73 (adjusted with HCl), read-out: solubility): 9740 µg/mL
- solubility ([1]; aqueous medium, pH adjusted with methane sulfonic acid, pH 0.8, aqueous buffer, pH 0.80 (adjusted with methane sulfonic acid), read-out: solubility): 12400 µg/mL
- solubility at 40 h ([1]; water, pH 4.7, water, Sample 1, duration 40 h, isolation method 1, pH 4.70, about 20 to 25° C.): 253 µg/mL
- solubility ([1]; water, water, water, pH about 4 to about 7, about 20° C. to about 25° C., read-out: aqueous solubility): 260 µg/mL
- solubility ([2]; aqueous with cosolvent or surfactant or cyclodextrin, 25% Dimethyl sulfoxide in water, solid form: monohydrate): 590 µg/mL
- solubility ([2]; aqueous with cosolvent or surfactant or cyclodextrin, 50% Dimethyl sulfoxide in water, solid form: monohydrate): 1020 µg/mL
- solubility ([2]; aqueous with cosolvent or surfactant or cyclodextrin, 75% Dimethyl sulfoxide in water, solid form: monohydrate): 8450 µg/mL
- solubility ([2]; organic solvent or mixture, Acetonitrile, solid form: monohydrate (extra peak observed)): 127000 µg/mL
- solubility ([2]; organic solvent or mixture, Ethanol, solid form: monohydrate): 29700 µg/mL
- solubility ([2]; organic solvent or mixture, Ethyl Acetate, solid form: monohydrate): 20100 µg/mL
- solubility ([2]; organic solvent or mixture, Isopropanol, solid form: monohydrate): 8800 µg/mL
- solubility ([2]; organic solvent or mixture, Methanol, solid form: monohydrate): 53900 µg/mL
- solubility ([2]; organic solvent or mixture, Methyl Ethyl Ketone, solid form: monohydrate + trace acetone solvate): 45800 µg/mL
- solubility ([2]; organic solvent or mixture, Toluene, solid form: monohydrate): 1900 µg/mL
- chemical degradation ([3]; 1×ICH dose for UV and visible light, amber glass vials): no chemical degradation
- Area % (215 nm), peak No MS signal, RRT 0.80 ([3]; UV (200 W × h/m^2), Amber vial): <0.01 Area %
- Area % (215 nm), peak m/z 390, RRT 0.84 ([3]; UV (200 W × h/m^2), Amber vial): 0.06 Area %
- Area % (215 nm), peak m/z 520 [M + Na]^+, RRT 0.83 ([3]; UV (200 W × h/m^2), Amber vial): <0.01 Area %
- Area % (215 nm), peak m/z 581, RRT 0.82 ([3]; UV (200 W × h/m^2), Amber vial): <0.01 Area %
- Area % (215 nm), peak m/z 638, RRT 1.16 ([3]; UV (200 W × h/m^2), Amber vial): 0.05 Area %
- Area % (215 nm), peak monohydrate, RRT 1.00 ([3]; UV (200 W × h/m^2), Amber vial): 99.89 Area %
- Total Impurities, Area % (215 nm) ([3]; UV (200 W × h/m^2), Amber vial): 0.11 Area %
- Area % (215 nm), peak No MS signal, RRT 0.80 ([3]; UV (200 W × h/m^2), Clear vial): 0.02 Area %
- Area % (215 nm), peak m/z 390, RRT 0.84 ([3]; UV (200 W × h/m^2), Clear vial): 0.19 Area %
- Area % (215 nm), peak m/z 520 [M + Na]^+, RRT 0.83 ([3]; UV (200 W × h/m^2), Clear vial): 0.06 Area %
- Area % (215 nm), peak m/z 581, RRT 0.82 ([3]; UV (200 W × h/m^2), Clear vial): 0.05 Area %
- Area % (215 nm), peak m/z 638, RRT 1.16 ([3]; UV (200 W × h/m^2), Clear vial): 0.04 Area %
- Area % (215 nm), peak monohydrate, RRT 1.00 ([3]; UV (200 W × h/m^2), Clear vial): 99.64 Area %
- Total Impurities, Area % (215 nm) ([3]; UV (200 W × h/m^2), Clear vial): 0.36 Area %
- degradation ([3]; UV light): 0.4%
- Area % (215 nm), peak No MS signal, RRT 0.80 [3, 5]: <0.01 Area %
- Area % (215 nm), peak m/z 390, RRT 0.84 [3, 5]: 0.05 Area %
- Area % (215 nm), peak m/z 520 [M + Na]^+, RRT 0.83 [3, 5]: <0.01 Area %
- Area % (215 nm), peak m/z 581, RRT 0.82 [3, 5]: <0.01 Area %
- Area % (215 nm), peak m/z 638, RRT 1.16 [3, 5]: 0.05 Area %
- Area % (215 nm), peak monohydrate, RRT 1.00 [3, 5]: 99.89 Area %
- Total Impurities, Area % (215 nm) [3, 5]: 0.11 Area %
- Area % (215 nm), peak No MS signal, RRT 0.80 [3, 6]: <0.01 Area %
- Area % (215 nm), peak m/z 390, RRT 0.84 [3, 6]: 0.13 Area %
- Area % (215 nm), peak m/z 520 [M + Na]^+, RRT 0.83 [3, 6]: <0.01 Area %
- Area % (215 nm), peak m/z 581, RRT 0.82 [3, 6]: <0.01 Area %
- Area % (215 nm), peak m/z 638, RRT 1.16 [3, 6]: 0.04 Area %
- Area % (215 nm), peak monohydrate, RRT 1.00 [3, 6]: 99.83 Area %
- Total Impurities, Area % (215 nm) [3, 6]: 0.17 Area %
- degradation ([3]; visible light): 0.2%
- changes in solid state properties ([4]; 25° C./60% RH, 40° C./75% RH and 60° C./ambient RH for 12 weeks): no changes in solid state properties were observed
- Area % (215 nm), peak 2, RRT 1.09 ([4]; Initial): <0.1 Area %
- Area % (215 nm), peak 3, RRT 1.25 ([4]; Initial): <0.1 Area %
- Area % (215 nm), peak 4, RRT 1.53 ([4]; Initial): <0.1 Area %
- Area % (215 nm), peak monohydrate, RRT 1.00 ([4]; Initial): 100.0 Area %
- Total Impurities, Area % (215 nm) ([4]; Initial): <0.1 Area %
- Area % (215 nm), peak 2, RRT 1.09 ([4]; Week 2, 25/60): 0.27 Area %
- Area % (215 nm), peak 3, RRT 1.25 ([4]; Week 2, 25/60): 0.28 Area %
- Area % (215 nm), peak 4, RRT 1.53 ([4]; Week 2, 25/60): 0.28 Area %
- Area % (215 nm), peak monohydrate, RRT 1.00 ([4]; Week 2, 25/60): 99.18 Area %
- Total Impurities, Area % (215 nm) ([4]; Week 2, 25/60): 0.82 Area %
